Measured values reported in PubChem BioAssay AID1963834 (Molecular Pharmacology Branch, DTP, NCI, 2024).
pIC50: −log10 of the molar value.

Test system: 873145-292-R-J1-PDC complex spheroid viability
Assay: Anticancer human tumor 873145-292-R-J1-PDC patient-derived renal clear cell carcinoma cell line growth inhibition [POLQ]
Settings: for pIC50: curve of first compound; for viability, T/C: stronger effect = lower value; active = viability on the fitted dose curve at most 10% of control; inactive = the rest
Procedure: Multicellular complex tumor spheroid response to Polymerase (POL) inhibitors (novobiocin, ART-558, RP6685) in combination with a variety of drugs and investigational agents in selected tumor cell lines
The POL inhibitors (novobiocin, ART-558, and RP6685) were evaluated both individually and in combination with standard of care and investigational anticancer small molecules within a complex spheroid model of solid tumors. . Complex spheroids include a stromal component modeled by human endothelial cells (HUVEC) and fibroblasts modeled by human mesenchymal stem cells (MSCs). The concentration ranges selected for each drug and investigational agent were based upon clinically achievable concentrations if the clinical Cmax of the agent was known.
Compounds. The drugs and investigational agents: novobiocin (NSC847541), ART-558 (NSC835418), RP-6685 (NSC848927), peposertib (NSC802822), ceralasertib (NSC780249), elimusertib (NSC800525), camonsertib (NSC841442), AZD-1390 (NSC803789), olaparib (NSC753686), talazoparib (NSC767125), rucaparib (NSC756644), sotorasib (NSC818433), MRTX-1133 (NSC836407), SN-38 (NSC673596), topotecan (NSC609699), epotoside (NSC141540), doxorubicin (NSC123127), gemcitabine (NSC613327), 5-fluorouracil (NSC19893), paclitaxel (NSC125973), vemurafenib (NSC761431), MSA-2 (NSC828583), SN-011 (NSC837082), adavosertib (NSC754352), prexasertib (NSC758257), carboplatin (NSC241240) and oxaliplatin (NSC266046), were obtained from the National Cancer Institute (NCI) Developmental Therapeutics Program Chemical Repository (21). The FDA-approved anticancer drug set is available from the Developmental Therapeutics Program at https://dtp.cancer.gov/organization/dscb/obtaining/. […] The stock solutions were prepared in dimethyl sulfoxide (DMSO, Sigma-Aldrich, St. Louis, MO, cat. D2650), except for the platinum compounds which were prepared in saline (Quality Biological, Gaithersburg, MD, cat. 114-055-101), at 800-fold the tested concentration and stored at -70 degrees C prior to their use. All drugs and investigational agents were tested over a range starting from a high concentration at or near the clinical Cmax and decreasing in half-log increments. If the clinical Cmax for an agent had not been determined, the highest concentration tested was 10 microM, except for SN-38, which was tested at a high concentration of 1 microM.
Cell Culture. All cells were maintained in an incubator at 37 degrees C and 5% CO2 with 95% humidity. The PDC lines were cultured according to standard operating procedures established by the NCI PDMR (https://pdmr.cancer.gov). Table 3 of the manuscript, lists the cell lines along with the number of the three cell types plated to form the mct-spheroids and media for tumor cell growth. After thawing, all PDC lines, except 997537-175-T-J1-PDC and 415267-285-R-J2-PDC, were cultured in Matrigel-coated flasks prepared with a working solution of 1X Ham's F-12 nutrient mix, without supplementation (Thermo Fisher Scientific, cat. 11765054), 100 U/mL penicillin-streptomycin (Thermo Fisher Scientific, cat. 15140122), and 2.5% Matrigel (Corning Inc., Corning, NY, cat. 354248) for the first three passages. The two PDC lines 997537-175-T-J1-PDC and 415267-285-R-J2-PDC were cultured on uncoated flasks. The 857933-349-R-J2-PDC line was cultured in 6C/Colon 1B media containing advanced DMEM/F-12 (Thermo Fisher Scientific, cat. 12634028), 10 mM HEPES (Thermo Fisher Scientific, cat. 15630080), 1X GlutaMAX supplement (Thermo Fisher Scientific, cat. 35050061), 0.1 mg/mL primocin (InvivoGen, San Diego, CA, cat. ant-pm-2), 10% defined fetal bovine serum, heat inactivated (HyClone Laboratories Inc., Logan, UT, cat. SH30070.03HI), 50% L-WRN conditioned media (ATCC, cat. CRL-3276), 1.25 mM N-Acetyl-L-cysteine (Sigma-Aldrich, cat. A9165), 10 mM nicotinamide (Sigma-Aldrich, cat. N0636), 1X B-27 supplement (Thermo Fisher Scientific, cat. 17504044), 1X N-2 supplement (Thermo Fisher Scientific, cat. […]
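Also: spheroids exposed to compounds for 7 days before viability readout.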
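For viability, T/C in this document: luminescence signal used as surrogate for viable cell content.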

CC1COCCN1c1cc(C2(O)CC3CCC(C2)O3)c2cnn(-c3ccn[nH]3)c2n1 (configuration not stated) + Nc1ccc(C#CCN(C(=O)Cc2ncc(C(F)(F)F)cc2C(F)(F)F)c2ccc(F)cc2)nn1
inactive: viability, T/C (second compound 0.0316 µM, first compound 0.0316 µM) 101% | viability, T/C (second compound 0.0316 µM, first compound 0.1 µM) 84% | viability, T/C (second compound 0.0316 µM, first compound 0.316 µM) 61.3% | viability, T/C (second compound 0.0316 µM, first compound 1 µM) 52.8% | viability, T/C (second compound 0.0316 µM, first compound 3.16 µM) 50.3% | viability, T/C (second compound 0.0316 µM, first compound 10 µM) 47.6% | viability, T/C (second compound 0.1 µM, first compound 0.0316 µM) 111% | viability, T/C (second compound 0.1 µM, first compound 0.1 µM) 81.9% | viability, T/C (second compound 0.1 µM, first compound 0.316 µM) 61.5% | viability, T/C (second compound 0.1 µM, first compound 1 µM) 48.1% | viability, T/C (second compound 0.1 µM, first compound 3.16 µM) 49.8% | viability, T/C (second compound 0.1 µM, first compound 10 µM) 40.9% | viability, T/C (second compound 0.316 µM, first compound 0.0316 µM) 94.3% | viability, T/C (second compound 0.316 µM, first compound 0.1 µM) 79.4% | viability, T/C (second compound 0.316 µM, first compound 0.316 µM) 54.9% | viability, T/C (second compound 0.316 µM, first compound 1 µM) 50.4% | viability, T/C (second compound 0.316 µM, first compound 3.16 µM) 59.4% | viability, T/C (second compound 0.316 µM, first compound 10 µM) 45.6% | viability, T/C (second compound 1 µM, first compound 0.0316 µM) 89.2% | viability, T/C (second compound 1 µM, first compound 0.1 µM) 72.2% | viability, T/C (second compound 1 µM, first compound 0.316 µM) 59.9% | viability, T/C (second compound 1 µM, first compound 1 µM) 50.2% | viability, T/C (second compound 1 µM, first compound 3.16 µM) 51.2% | viability, T/C (second compound 1 µM, first compound 10 µM) 42.4% | viability, T/C (second compound 3.16 µM, first compound 0.0316 µM) 89.2% | viability, T/C (second compound 3.16 µM, first compound 0.1 µM) 81% | viability, T/C (second compound 3.16 µM, first compound 0.316 µM) 67.5% | viability, T/C (second compound 3.16 µM, first compound 1 µM) 53.2% | viability, T/C (second compound 3.16 µM, first compound 3.16 µM) 56.8% | viability, T/C (second compound 3.16 µM, first compound 10 µM) 46.9% | viability, T/C (second compound 10 µM, first compound 0.0316 µM) 99.3% | viability, T/C (second compound 10 µM, first compound 0.1 µM) 94.5% | viability, T/C (second compound 10 µM, first compound 0.316 µM) 66% | viability, T/C (second compound 10 µM, first compound 1 µM) 57.1% | viability, T/C (second compound 10 µM, first compound 3.16 µM) 55.3% | viability, T/C (second compound 10 µM, first compound 10 µM) 48.2%
5.96: pIC50 (second compound 0.1 µM)
< 5.00: pIC50 (second compound 0.316 µM) | pIC50 (second compound 3.16 µM) | pIC50 (second compound 10 µM)
5.77: pIC50 (second compound 1 µM)
5.62: pIC50 (second compound 0.0316 µM)
